The IC50 is the concentration needed to halve the response being measured.

This passage reports IC50 results from US11873291B2, “Quinoline cGAS antagonist compounds” (ImmuneSensor Therapeutics, Inc., priority 2020, dated 2024).

For this assay, the target named is T1, recombinant human cGAS (aa147-522) (Homo sapiens, UniProt Q8N884).
T1 construct: recombinant human cGAS (aa147-522); His6-SUMO (cleaved yes); made in house; host or cells: E. coli BL21/pLys
Nature of the assay: In vitro inhibition assay of cGAS activity (ATP consumption, KinaseGlo Max). The assay is classed as biochemical. Particulars: Table 3, read-out: cGAS Inhibition Results IC50. A digest of the protocol: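 IC50 came from plotting % ATP consumption against log compound concentration, with leftover ATP detected by KinaseGlo Max chemiluminescence. Reactions ran 20 min at 37 °C with 1.5 μg/mL human cGAS (aa147-522), 6.6 μM ATP, 0.1 mM GTP and 0.01 mg/mL DNA at pH 7.5.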

T1 sequence (Q8N884 147-522): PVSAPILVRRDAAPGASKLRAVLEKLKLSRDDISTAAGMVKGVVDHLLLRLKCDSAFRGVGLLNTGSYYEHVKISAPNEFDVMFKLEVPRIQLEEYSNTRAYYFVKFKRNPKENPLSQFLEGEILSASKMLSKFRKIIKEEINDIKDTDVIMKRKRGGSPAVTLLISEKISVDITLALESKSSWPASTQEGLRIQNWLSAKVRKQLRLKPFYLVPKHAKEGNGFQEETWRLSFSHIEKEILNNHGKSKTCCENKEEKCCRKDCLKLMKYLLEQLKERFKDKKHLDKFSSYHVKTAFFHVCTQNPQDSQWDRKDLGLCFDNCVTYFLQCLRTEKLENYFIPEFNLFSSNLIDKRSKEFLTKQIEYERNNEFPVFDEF

In the case of `O=C(O)CCS(=O)(=O)N[C@@H]1C[C@@H](C(=O)O)N(c2cc(-n3ccnc3)c3ccc(Cl)c(Cl)c3n2)C1` [I-512], the IC50 was below 2000 nM.
Consider `O=C(O)C12CC(Nc3cc(-n4ccnc4)c4ccc(Cl)c(Cl)c4n3)(C1)C2` [I-513], for which the IC50 is below 2000 nM.
Regarding `O=C(O)[C@@H]1C[C@@H](O)CN1c1cc(-n2ccnc2)c2ccc(Cl)c(Cl)c2n1` [I-514], the IC50 was below 2000 nM.
Next, `O=C(O)[C@@H]1C[C@@H]2CCC[C@@H]2N1c1cc(-n2ccnc2)c2ccc(Cl)c(Cl)c2n1` [I-515]: below 2000 nM; `CC1(C)C2[C@@H](C(=O)O)N(c3cc(-n4ccnc4)c4ccc(Cl)c(Cl)c4n3)C[C@@H]21` (stereo partly drawn) [I-517]: below 2000 nM; `O=C(O)[C@@H]1C[C@@H](N2CCOCC2)CN1c1cc(-n2ccnc2)c2ccc(Cl)c(Cl)c2n1` [I-518]: below 2000 nM.
Next, `N[C@@H]1C[C@@H](C(=O)O)N(c2cc(-n3ccnc3)c3ccc(Cl)c(Cl)c3n2)C1` [I-519]: below 2000 nM.
Regarding `O=C(O)[C@@H]1CC(F)(F)CN1c1cc(-n2ccnc2)c2ccc(Cl)c(Cl)c2n1` [I-520], the IC50 was below 2000 nM.
For `O=C(O)[C@@H]1CN(c2cc(-n3ccnc3)c3ccc(Cl)c(Cl)c3n2)CCO1` [I-521], the IC50 is below 2000 nM.
The value for `CC(C)(C)OC(=O)[C@H]1CCCN1C(=O)C[C@@H]1CCCN1c1cc(-n2ccnc2)c2ccc(Cl)c(Cl)c2n1` [I-522] was 2000 to 30000 nM; that for `O=C(O)C1CCN(C(=O)C[C@@H]2CCCN2c2cc(-n3ccnc3)c3ccc(Cl)c(Cl)c3n2)C1` (stereo partly drawn) [I-524] was below 2000 nM; that for `CN(CCC(=O)O)C(=O)C[C@@H]1CCCN1c1cc(-n2ccnc2)c2ccc(Cl)c(Cl)c2n1` [I-525] was below 2000 nM.
Next, `CC(C)[C@H](NC(=O)C[C@@H]1CCCN1c1cc(-n2ccnc2)c2ccc(Cl)c(Cl)c2n1)C(=O)O` [I-526]: below 2000 nM.
With `CC(C)(NC(=O)C[C@@H]1CCCN1c1cc(-n2ccnc2)c2ccc(Cl)c(Cl)c2n1)C(=O)O` [I-527], the IC50 is below 2000 nM.
Consider `O=C(C[C@@H]1CCCN1c1cc(-n2ccnc2)c2ccc(Cl)c(Cl)c2n1)N[C@@H](C(=O)O)c1ccccc1` [I-528], for which the IC50 is above 30000 nM.
The value for `O=C(O)C1CCN(C(=O)C[C@@H]2CCCN2c2cc(-n3ccnc3)c3ccc(Cl)c(Cl)c3n2)CC1` [I-529] was below 2000 nM.
The value for `O=C(O)C1CCCN(C(=O)C[C@@H]2CCCN2c2cc(-n3ccnc3)c3ccc(Cl)c(Cl)c3n2)C1` (stereo partly drawn) [I-530] was below 2000 nM; that for `COC(=O)CNC(=O)C[C@@H]1CCCN1c1cc(-n2ccnc2)c2ccc(Cl)c(Cl)c2n1` [I-531] was below 2000 nM; that for `O=C(O)C1CCCCN1C(=O)C[C@@H]1CCCN1c1cc(-n2ccnc2)c2ccc(Cl)c(Cl)c2n1` (stereo partly drawn) [I-533] was below 2000 nM.
Next, `NS(=O)(=O)CC1CCCN1C(=O)C[C@@H]1CCCN1c1cc(-n2ccnc2)c2ccc(Cl)c(Cl)c2n1` (stereo partly drawn) [I-534]: 2000 to 30000 nM; `COC(=O)C1CCCN(C(=O)C[C@@H]2CCCN2c2cc(-n3ccnc3)c3ccc(Cl)c(Cl)c3n2)C1` (stereo partly drawn) [I-535]: 2000 to 30000 nM; `O=C(C[C@@H]1CCCN1c1cc(-n2ccnc2)c2ccc(Cl)c(Cl)c2n1)N1CCC(c2nnn[nH]2)C1` (stereo partly drawn) [I-536]: below 2000 nM.
As to `NS(=O)(=O)C1CCN(C(=O)C[C@@H]2CCCN2c2cc(-n3ccnc3)c3ccc(Cl)c(Cl)c3n2)C1` (stereo partly drawn) [I-537], the IC50 was 2000 to 30000 nM.
With `O=C(O)C1CN(C(=O)C[C@@H]2CCCN2c2cc(-n3ccnc3)c3ccc(Cl)c(Cl)c3n2)CCO1` (stereo partly drawn) [I-538], the half-inhibitory concentration (IC50) was below 2000 nM.
Next, `O=C(C[C@@H]1CCCN1c1cc(-n2ccnc2)c2ccc(Cl)c(Cl)c2n1)NS(=O)(=O)C(F)F` [I-540]: below 2000 nM; `O=C(C[C@@H]1CCCN1c1cc(-n2ccnc2)c2ccc(Cl)c(Cl)c2n1)NC1CCNC1=O` (stereo partly drawn) [I-541]: below 2000 nM.
Next, `CON(C)C(=O)[C@@H]1CCCN1c1cc(-n2ccnc2)c2ccc(Cl)c(Cl)c2n1` [I-542]: 2000 to 30000 nM; `O=C(C[C@@H]1CCCN1c1cc(-n2ccnc2)c2ccc(Cl)c(Cl)c2n1)NCCC(O)(C(F)(F)F)C(F)(F)F` [I-543]: 2000 to 30000 nM.
Next, `O=C(C[C@@H]1CCCN1c1cc(-n2ccnc2)c2ccc(Cl)c(Cl)c2n1)NC1CCCNC1=O` (stereo partly drawn) [I-544]: 2000 to 30000 nM.
Regarding `O=C(NS(=O)(=O)C(F)F)[C@@H]1CCCN1c1cc(-n2ccnc2)c2ccc(Cl)c(Cl)c2n1` [I-545], the IC50 was below 2000 nM.
Turning to `O=C(O)C1CCCN(C(=O)[C@@H]2CCCN2c2cc(-n3ccnc3)c3ccc(Cl)c(Cl)c3n2)C1` (stereo partly drawn) [I-546], the IC50 lay within 2000 to 30000 nM.
Next, `O=C(O)C1CCCCN1C(=O)[C@@H]1CCCN1c1cc(-n2ccnc2)c2ccc(Cl)c(Cl)c2n1` (stereo partly drawn) [I-547]: 2000 to 30000 nM.
On to `O=C(O)C1CCN(C(=O)[C@@H]2CCCN2c2cc(-n3ccnc3)c3ccc(Cl)c(Cl)c3n2)CC1` [I-548], for which the IC50 was below 2000 nM.
For `O=C(O)C1CN(C(=O)[C@@H]2CCCN2c2cc(-n3ccnc3)c3ccc(Cl)c(Cl)c3n2)CCO1` (stereo partly drawn) [I-549], the IC50 is below 2000 nM.
As to `CC(C)[C@H](NC(=O)[C@@H]1CCCN1c1cc(-n2ccnc2)c2ccc(Cl)c(Cl)c2n1)C(=O)O` [I-550], the concentration for half-maximal inhibition (IC50) is 2000 to 30000 nM.
As for `O=C(NC12CC(C(=O)O)(C1)C2)[C@@H]1CCCN1c1cc(-n2ccnc2)c2ccc(Cl)c(Cl)c2n1` [I-551], the half-maximal inhibitory concentration (IC50) was above 30000 nM.
The value for `O=C(O)[C@@H]1CCCN1C(=O)[C@@H]1CCCN1c1cc(-n2ccnc2)c2ccc(Cl)c(Cl)c2n1` [I-552] was below 2000 nM; that for `O=C(O)C[C@@H]1CCCN1C(=O)[C@@H]1CCCN1c1cc(-n2ccnc2)c2ccc(Cl)c(Cl)c2n1` [I-553] was below 2000 nM.
The value for `NC(=O)CCNC(=O)[C@@H]1CCCN1c1cc(-n2ccnc2)c2ccc(Cl)c(Cl)c2n1` [I-554] was 2000 to 30000 nM.
Next, `O=C(O)CCNC(=O)[C@@H]1CN(c2cc(-n3ccnc3)c3ccc(Cl)c(Cl)c3n2)CCO1` [I-555]: below 2000 nM.
With `NC(=O)[C@@H]1[C@@H](O)CCN1c1cc(-n2ccnc2)c2ccc(Cl)c(Cl)c2n1` [I-557], the IC50 is below 2000 nM.
`O=C(NO)[C@@H]1[C@@H](O)CCN1c1cc(-n2ccnc2)c2ccc(Cl)c(Cl)c2n1` [I-558]: the IC50 was below 2000 nM.
For the molecule `CO[C@@H]1CCN(c2cc(-n3ccnc3)c3ccc(Cl)c(Cl)c3n2)[C@@H]1C(=O)O` [I-559], the IC50 was below 2000 nM.
Regarding `CO[C@H]1CCN(c2cc(-n3ccnc3)c3ccc(Cl)c(Cl)c3n2)[C@@H]1C(=O)O` [I-560], the concentration for half-maximal inhibition (IC50) was below 2000 nM.
In the case of `O=C(O)CO[C@@H]1CCN(c2cc(-n3ccnc3)c3ccc(Cl)c(Cl)c3n2)[C@@H]1C(=O)O` [I-561], the IC50 was below 2000 nM.
Next, `CN(CC(=O)NCCC(=O)O)c1cc(-n2ccnc2)c2ccc(Cl)c(Cl)c2n1` [I-562]: below 2000 nM; `C[C@@H](NC(=O)CCN(C)c1cc(-n2ccnc2)c2ccc(Cl)c(Cl)c2n1)C(=O)O` [I-563]: below 2000 nM.
The value for `CN(CCC(=O)O)C(=O)CCN(C)c1cc(-n2ccnc2)c2ccc(Cl)c(Cl)c2n1` [I-564] was below 2000 nM; that for `C[C@H](NC(=O)CCN(C)c1cc(-n2ccnc2)c2ccc(Cl)c(Cl)c2n1)C(=O)O` [I-565] was below 2000 nM.
The value for `CN(CCC(=O)N1CCC(S(N)(=O)=O)C1)c1cc(-n2ccnc2)c2ccc(Cl)c(Cl)c2n1` (stereo not drawn) [I-566] was below 2000 nM; that for `CN(CCC(=O)NCCS(N)(=O)=O)c1cc(-n2ccnc2)c2ccc(Cl)c(Cl)c2n1` [I-567] was below 2000 nM.
In the case of `CN(CC(=O)NCCC(N)=O)c1cc(-n2ccnc2)c2ccc(Cl)c(Cl)c2n1` [I-568], the IC50 lay within 2000 to 30000 nM.
For the molecule `O=C(O)CNC(=O)O[C@H]1C[C@@H](C(=O)O)N(c2cc(-n3ccnc3)c3ccc(Cl)c(Cl)c3c2)C1` [I-570, (2S,4S)-4-(((carboxymethyl)carbamoyl)oxy)-1-(7,8-dichloro-4-(1H-imidazol-1-yl)naphthalen-2-yl)pyrrolidine-2-carboxylic acid], the IC50 is 2000 to 30000 nM.
Next, `O=C(O)[C@@H]1C[C@H](OC(=O)N2CCOCC2)CN1c1cc(-n2ccnc2)c2ccc(Cl)c(Cl)c2n1` [I-571]: below 2000 nM; `COC(=O)C[C@@H]1CCCN1c1cc(-n2ccnc2)c2ccc(Cl)c(Cl)c2c1` [I-572, methyl (S)-2-(1-(7,8-dichloro-4-(1H-imidazol-1-yl)naphthalen-2-yl)pyrrolidin-2-yl)acetate]: below 2000 nM; `CC(C)(C)OC(=O)C[C@@H]1CCCN1c1cc(-n2ccnc2)c2ccc(Cl)c(Cl)c2n1` [I-573]: 2000 to 30000 nM.
Turning to `COC(=O)[C@@H]1CC[C@H](C)N1c1cc(-n2ccnc2)c2ccc(Cl)c(Cl)c2n1` [I-574], the IC50 was 2000 to 30000 nM.
The value for `COC(=O)C12CC(CN1c1cc(-n3ccnc3)c3ccc(Cl)c(Cl)c3n1)C2` [I-579] was above 30000 nM; that for `COC(=O)C12CC(C)(CN1c1cc(-n3ccnc3)c3ccc(Cl)c(Cl)c3n1)C2` [I-580] was above 30000 nM; that for `COC(=O)[C@@H]1Cc2ccccc2N1c1cc(-n2ccnc2)c2ccc(Cl)c(Cl)c2n1` [I-581] was 2000 to 30000 nM.
Next, `COC(=O)C1N(c2cc(-n3ccnc3)c3ccc(Cl)c(Cl)c3n2)CCC1(C)C` (stereo not drawn) [I-587]: 2000 to 30000 nM; `COC(=O)[C@@H]1c2ccccc2CN1c1cc(-n2ccnc2)c2ccc(Cl)c(Cl)c2n1` [I-588]: below 2000 nM; `COC(=O)[C@@H]1C[C@@H](N)CN1c1cc(-n2ccnc2)c2ccc(Cl)c(Cl)c2n1` [I-589]: 2000 to 30000 nM.
The value for `COC(=O)[C@@H]1[C@@H](C)CCN1c1cc(-n2ccnc2)c2ccc(Cl)c(Cl)c2n1` [I-590] was 2000 to 30000 nM; that for `CC(C)COC(=O)[C@@H]1[C@@H](O)CCN1c1cc(-n2ccnc2)c2ccc(Cl)c(Cl)c2n1` [I-602] was 2000 to 30000 nM.
For the molecule `NC(=O)C[C@@H]1CCCN1c1cc(-n2ccnc2)c2ccc(Cl)c(Cl)c2n1` [I-603], the IC50 is below 2000 nM.
